Each structure is given as a SMILES string.

Data on 2 molecules can be found in ChEMBL document CHEMBL1158894, “A new P-glycoprotein inhibitor from the caper spurge (Euphorbia lathyris)” (J Nat Prod, 2003).

Series [1] in a line: Inhibition of P-glycoprotein NBD2 domain assessed as quenching of intrinsic fluorescence at 60 uM. Details: scale not given: the % may be the effect or the level left.
Series [2] addresses ATP-dependent translocase ABCB1 (Homo sapiens, UniProt P08183). Description: Inhibition of P-glycoprotein-mediated daunomycin transport in human K562/R7 cells assessed as accumulation at 5 uM. Format: cell-based. The arrangement: scale not given: the % may be the effect or the level left. The following applies: k562/r7, 5 µM.
The nature of series [3]: Inhibition of P-glycoprotein NBD2 domain.

Sequence of ATP-dependent translocase ABCB1 (P08183 whole entry, the tested form may be a part): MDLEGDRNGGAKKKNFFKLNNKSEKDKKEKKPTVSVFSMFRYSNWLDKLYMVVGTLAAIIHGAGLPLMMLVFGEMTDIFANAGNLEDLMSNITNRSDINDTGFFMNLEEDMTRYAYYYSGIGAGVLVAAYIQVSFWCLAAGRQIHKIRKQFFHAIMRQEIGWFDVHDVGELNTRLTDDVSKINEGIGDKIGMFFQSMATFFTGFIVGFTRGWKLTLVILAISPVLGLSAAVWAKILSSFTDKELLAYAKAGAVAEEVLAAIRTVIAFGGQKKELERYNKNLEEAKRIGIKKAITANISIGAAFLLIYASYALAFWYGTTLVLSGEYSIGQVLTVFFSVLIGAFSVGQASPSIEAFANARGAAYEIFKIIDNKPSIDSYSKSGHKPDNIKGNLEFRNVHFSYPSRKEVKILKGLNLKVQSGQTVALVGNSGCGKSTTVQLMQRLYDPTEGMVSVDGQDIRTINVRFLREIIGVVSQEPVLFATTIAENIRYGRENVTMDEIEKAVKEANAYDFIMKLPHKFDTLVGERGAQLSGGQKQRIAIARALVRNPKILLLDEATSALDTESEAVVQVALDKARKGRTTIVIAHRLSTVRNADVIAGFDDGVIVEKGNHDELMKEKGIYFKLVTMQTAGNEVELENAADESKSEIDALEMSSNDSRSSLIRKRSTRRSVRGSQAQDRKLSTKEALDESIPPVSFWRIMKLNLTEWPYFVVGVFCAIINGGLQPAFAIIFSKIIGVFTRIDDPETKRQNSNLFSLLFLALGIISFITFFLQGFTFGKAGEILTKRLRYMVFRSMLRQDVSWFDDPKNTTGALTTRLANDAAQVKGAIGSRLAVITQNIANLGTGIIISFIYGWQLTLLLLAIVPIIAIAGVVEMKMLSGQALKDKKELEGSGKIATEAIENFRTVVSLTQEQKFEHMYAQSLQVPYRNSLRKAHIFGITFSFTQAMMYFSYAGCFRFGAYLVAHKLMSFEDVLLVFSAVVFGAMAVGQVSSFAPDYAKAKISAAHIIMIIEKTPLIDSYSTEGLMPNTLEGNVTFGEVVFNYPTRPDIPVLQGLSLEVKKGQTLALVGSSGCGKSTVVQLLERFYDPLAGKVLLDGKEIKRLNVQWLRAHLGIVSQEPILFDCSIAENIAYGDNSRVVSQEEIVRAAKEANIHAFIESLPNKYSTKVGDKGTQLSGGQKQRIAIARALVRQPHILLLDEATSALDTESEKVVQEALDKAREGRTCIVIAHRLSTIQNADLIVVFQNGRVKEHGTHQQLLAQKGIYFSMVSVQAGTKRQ

For the molecule `CCCCCC(=O)O[C@H]1[C@@H](C)C[C@]2(OC(C)=O)C(=O)/C(C)=C/[C@@H]3[C@H](CC/C(COC(C)=O)=C/[C@@H]12)C3(C)C`, the Activity was determined as 13.8% in series [1] and 80% in series [2].

`CCCCCC(=O)O[C@H]1[C@@H](C)C[C@]2(OC(C)=O)C(=O)/C(C)=C/[C@@H]3[C@H](CC/C(CO)=C/[C@@H]12)C3(C)C`: the results for the Activity in series [1] and in series [2] were 78.5% and 95%, respectively. In series [3], this molecule yielded a Kd of 16.9 µM.

As usually defined, the Kd is the free concentration of one partner at which half of the binding sites on the other are occupied at equilibrium, for simple one-to-one binding.
